In PMC10037499, “High-Throughput Screen Reveals the Structure–Activity Relationship of the Antimicrobial Lasso Peptide Ubonodin” (ACS Central Science, 2023):
Where two headings read alike, the source gives them in different places. Where a SMILES comes first, the peptide text is derived from it.

What was measured:
[1] = system: RNA polymerase (RNAP) in E. coli MC1061; test: High-throughput growth-based screen with NGS (enrichment value) for RNA polymerase inhibition; assay type: cell-based; parameters: key to Experimental observation (enrichment observed in the screen): Dropout: Many variants inhibit RNAP so strongly that they cannot be detected by NGS after IPTG induction (referred to as dropout variants); conditions: Table S4; variants whose MICs were tested
Method: The single mutant library was analyzed by NGS at multiple stages of sample preparation (Figure 2A) to track its evolution throughout the screen. Specifically, the frequency of each possible aa variant was computed at each stage by summing up counts for each distinct translated sequence and dividing by the total number of counts for all variants (eq S1, SI Methods). Since cells expressing an RNAP-inhibiting ubonodin variant will have growth defects relative to cells with a nontoxic variant, RNAP-inhibiting ubonodin variants are expected to decrease in frequency throughout the screen.
First, the naïve library (digested PCR products) was sequenced. These digested PCR products were cloned into the pUboABC backbone and transformed into a recA^– cloning strain. This plasmid library was sequenced again to capture any changes upon transformation of the library into E. coli. The change between the naïve library and the cloning transformation library was minimal (Figure S6A). This plasmid library was transformed into the screening strain MC1061, and the plasmid from resulting colonies was also sequenced. The library in MC1061 was grown up en masse in liquid culture to mid log phase, and a portion of the culture was plated. These colonies were scraped, then the plasmid was isolated and sequenced. Finally, the liquid culture was induced with IPTG, after which a portion of the culture was plated and the plasmid was isolated and sequenced. It is key to note that all samples from liquid cultures were plated prior to sequencing to ensure that only viable cells were sequenced. […] The rationale for sequencing at these five different stages was the possibility that leaky expression of uboA would affect the frequency of active mutants prior to IPTG induction. Indeed, we observed that the frequency of some uboA mutants dropped as soon as they were transformed into the screening strain MC1061 while the frequency of other mutants climbed (Figure 2B).
The behavior of the point variants (i.e., variants with a single aa substitution) was examined by calculating their enrichment values, the base-2 logarithm of the ratio of the variant’s frequency at a specific step of the screen to the variant’s frequency in the cloning transformation library (eq S3, Figure S6). The most relevant enrichment value for ubonodin activity is the comparison between the post-IPTG library and the cloning transformation library (Figure 2A). […] Many variants inhibit RNAP so strongly that they cannot be detected by NGS after IPTG induction (referred to as dropout variants). […] Variants with a stop codon mutation and variants containing an aa substitution at Tyr9 or Tyr27 (positions conserved in MccJ25 and shown to be crucial for RNAP inhibition, see Figure S7)[26] have positive enrichment values (1.2–1.7), serving as quality control for the screen (Figure 3A). Strikingly, 63% of point variants decreased in frequency, indicating a high tolerance to aa substitution. […] The positions with active variants are Asn11 through Ser24 in the loop and Asp3, Ser5, and Ala7 in the ring.
The single mutant and double mutant libraries were transformed into E. coli MC1061. Colonies were resuspended in media and subcultured into a larger culture. Aliquots of the cultures were sampled prior to and after induction with 10 μM IPTG and 100 μM IPTG and plated. After 16 h of incubation, the colonies were resuspended in media and plasmids were miniprepped.
Samples were PCR amplified with barcoded primers and combined such that double mutant library samples were over-represented compared to single mutant library samples to provide sufficient coverage of the larger double mutant library. Samples were sequenced using an Illumina MiSeq Micro 300nt and an Illumina NovaSeq 6000 Sequencing System. Downstream analysis of the data was conducted with Python, MATLAB, and R.
V to reduce genomic DNA contamination. One fragment was amplified with Xho I For Lib and a […]

[2] = system: E. coli MC1061; test: Spot dilution assay of E. coli producing the ubonodin variant from pUboABC; assay type: cell-based; conditions: variant in pUboABC backbone in E. coli MC1061, induction with 100 μM IPTG, ten-fold serial dilutions, biological duplicates
Method: Cultures of E. coli MC1061 transformed with the appropriate plasmids were grown. Aliquots of the cultures were sampled prior to and after induction with 100 μM IPTG, and 10-fold serial dilutions were plated. […]
All cloning was conducted by PCR amplification (using Q5 polymerase), restriction digestion, ligation, (using T4 DNA ligase), and transformation into chemically competent E. coli XL1-Blue. All cloning with a pUboABC backbone was done by plating transformation mixt ures onto Lysogeny Broth (LB) plates supplemented with 100 μg/mL ampicillin and 0.2% w/v glucose, and colonies were inoculated into LB media supplemented with 100 μ g/mL ampicillin and 0.2% w/v glucose to suppress any leaky expression. Cloning for all other plasmid constructs was done by plating transformation mixtures onto Lysogeny Broth (LB) plates supplemented with 100 μ g/ m L ampicillin, and colonies were inoculated into LB media supplemented with 100 μ g/ m L ampicillin.
Plasmids were extracted using Qiagen QIAprep Spin Miniprep Kit and sequence verified using Sanger sequencing. All primer sequences are listed in Table S7, and all plasmid constructs are […]
pUboABC was cloned by amplifying pWC99 with pQE-80 NheI For and pAT8 Nco I Rev.
The amplicon was ligated into pWC99 digested with Nhe I and Nco I. pUboBC was cloned by digesting pUboABC with Nh e I and Nco I and ligating that fragment into pQE-80 digested with Nhe I and Nco I. pUboABC S5H I16P and pUboABCD S5H I16P were cloned with overlap PCR using pWC99 as the template. One fragment was amplified with pQE-80 EcoRI For and S5H I16P Rev v2 and the second fragment was amplified with S5H I16P For v2 and pQE-80 HindII I Rev. […]
All remaining plasmid constructs were cloned with overlap PCR. One fragment was amplified with Xho I For Lib and a mutagenic reverse primer and the second fragment was amplified with NheI Rev Lib and a mutagenic forward primer. The templates and mutagenic […]
The fragments were joined with a second round of PCR and amplified with XhoI For Lib and NheI Rev Lib. Amplicons were ligated into the appropriate plasmid backbone digested with Xho I and Nhe I-HF. The plasmid backbones […]
The appropriate plasmid was transformed into electrocompetent E. coli MC1061, plated onto LB plates supplemented with 100 μ g/ m L ampicillin and 0.2% w/v glucose, and incubated at 30 °C for 16 hours. Colonies were inoculated into LB media supplemented with 100 μ g/ m L ampicillin and 0.2% w/v glucose and grown at 37 °C for 16 hours. These cultures were sub-cultured to an OD600 of 0.02 in 50 mL of LB media supplemented with 100 μg/mL ampicillin in a 250 mL flask. Once the OD600 reached 0.3, a 1 mL aliquot was sampled immediately prior to inducing the cultures with 100 μM isopropyl β-D-1-thiogalactopyranoside (IPTG). The aliquot was washed with Phosphate-Buffered Saline (PBS) two times and ten-fold serial dilutions were spotted onto LB plates supplemented with 100 μ g/ m L ampicillin and 0.2% w/v glucose. For each following timepoint, a 1 mL sample of each culture was withdrawn, washed with PBS two times, and ten- […]
fold serial dilutions were spotted onto LB plates supplemented with 100 μ g/m L ampicillin and 0.2% w/v glucose. Plates were incubated for 16 hours at 37 °C before imaging. […]
250 mL flask. Ten-fold serial dilutions of the culture were plated onto LB plates supplemented with 100 μ g/ m L ampicillin and 0.2% w/v glucose. The cultures were then grown at 37 °C, and once the OD600 reached 0.3, a 1 mL sample of the culture was withdrawn immediately before the cultures were induced with 10 μM or 100 μM IPTG and returned to grow longer. […]
All plates were incubated at 37 °C for 16 hours, after which the number of colonies was counted. Three biological replicates of this assay were done.
Co-Culture of E. coli MC1061 pUboABC and E. coli MC1061 pUboBC pUboABC (0.9 ng) and pUboBC (0.1 ng) were transformed into electrocompetent E. coli MC1061 with a one- hour outgrowth at 37 °C in LB media supplemented with 0.2% w/v glucose. […]

[3] = system: B. cenocepacia AU0756
Method: We proceeded to test the antimicrobial activity of the selected variants against two clinical isolates of the Bcc, B. cenocepacia AU0756 and B. cenocepacia AU24362, in broth microdilution assays. […] We revisited these measurements using broth microdilution assays following the Clinical & Laboratory Standards Institute (CLSI) standard.
Broth microdilution assays of the ubonodin variants were conducted using B. cenocepacia AU0756 and B. cenocepacia AU24362 with guidelines provided by the Clinical & Laboratory Standards Institute (CLSI).

SMILES	Experimental observation (enrichment observed in the screen) [1]	Inhibits Growth [2]	B. cenocepacia AU0756 MIC [3]	MIC [3]	MIC ([3]; broth microdilution, mass basis, strain not named in the sentence (values match AU0756))
CC[C@H](C)[C@H](NC(=O)[C@H](Cc1c[nH]cn1)NC(=O)[C@H](CCSC)NC(=O)[C@@H]1CCCN1C(=O)[C@H](CCCNC(=N)N)NC(=O)[C@H](CC(N)=O)NC(=O)[C@H](Cc1ccccc1)NC(=O)[C@H](Cc1ccc(O)cc1)NC(=O)[C@@H]1CCC(=O)NCC(=O)NCC(=O)N[C@@H](CC(=O)O)C(=O)NCC(=O)N[C@@H](CO)C(=O)N[C@@H]([C@@H](C)CC)C(=O)N[C@@H](C)C(=O)N1)C(=O)NCC(=O)N[C@@H](CC(=O)O)C(=O)N[C@@H](Cc1c[nH]c2ccccc12)C(=O)N[C@@H](CCC(N)=O)C(=O)N[C@H](C(=O)N[C@@H](CCSC)C(=O)N[C@@H](CC(=O)O)C(=O)N[C@@H](CO)C(=O)NCC(=O)N[C@@H](Cc1ccc(O)cc1)C(=O)N[C@@H](Cc1ccc(O)cc1)C(=O)NCC(=O)O)[C@@H](C)CC [H17G] (HELM PEPTIDE1{G.G.D.G.S.I.A.E.Y.F.N.R.P.M.H.I.G.D.W.Q.I.M.D.S.G.Y.Y.G}$PEPTIDE1,PEPTIDE1,1:R1-8:R3$$$V2.0)	-6.5	Yes	0.125 to 0.25 µM	0.125 to 0.25 µM	0.4 to 0.8 mg/L
CC[C@H](C)[C@@H]1NC(=O)[C@H](CO)NC(=O)CNC(=O)[C@H](CC(=O)O)NC(=O)CNC(=O)CNC(=O)CC[C@@H](C(=O)N[C@@H](Cc2ccc(O)cc2)C(=O)N[C@@H](Cc2ccccc2)C(=O)N[C@@H](CC(N)=O)C(=O)N[C@@H](CCCNC(=N)N)C(=O)N2CCC[C@H]2C(=O)N[C@@H](CCSC)C(=O)N[C@@H](Cc2c[nH]cn2)C(=O)N[C@@H](CC(=O)O)C(=O)N[C@@H](Cc2c[nH]cn2)C(=O)N[C@@H](CC(=O)O)C(=O)N[C@@H](Cc2c[nH]c3ccccc23)C(=O)N[C@@H](CCC(N)=O)C(=O)N[C@H](C(=O)N[C@@H](CCSC)C(=O)N[C@@H](CC(=O)O)C(=O)N[C@@H](CO)C(=O)NCC(=O)N[C@@H](Cc2ccc(O)cc2)C(=O)N[C@@H](Cc2ccc(O)cc2)C(=O)NCC(=O)O)[C@@H](C)CC)NC(=O)[C@H](C)NC1=O [I16D] (HELM PEPTIDE1{G.G.D.G.S.I.A.E.Y.F.N.R.P.M.H.D.H.D.W.Q.I.M.D.S.G.Y.Y.G}$PEPTIDE1,PEPTIDE1,1:R1-8:R3$$$V2.0)	-6.2	Yes	0.5 to 2 µM	–	–
CC[C@H](C)[C@@H]1NC(=O)[C@H](CO)NC(=O)CNC(=O)[C@H](CC(=O)O)NC(=O)CNC(=O)CNC(=O)CC[C@@H](C(=O)N[C@@H](Cc2ccc(O)cc2)C(=O)N[C@@H](Cc2ccccc2)C(=O)N[C@@H](CC(N)=O)C(=O)N[C@@H](CCCNC(=N)N)C(=O)N2CCC[C@H]2C(=O)N[C@@H](CCSC)C(=O)N[C@@H](Cc2c[nH]cn2)C(=O)N[C@@H](CCC(=O)O)C(=O)N[C@@H](Cc2c[nH]cn2)C(=O)N[C@@H](CC(=O)O)C(=O)N[C@@H](Cc2c[nH]c3ccccc23)C(=O)N[C@@H](CCC(N)=O)C(=O)N[C@H](C(=O)N[C@@H](CCSC)C(=O)N[C@@H](C)C(=O)N[C@@H](CO)C(=O)NCC(=O)N[C@@H](Cc2ccc(O)cc2)C(=O)N[C@@H](Cc2ccc(O)cc2)C(=O)NCC(=O)O)[C@@H](C)CC)NC(=O)[C@H](C)NC1=O [I16E D23A] (HELM PEPTIDE1{G.G.D.G.S.I.A.E.Y.F.N.R.P.M.H.E.H.D.W.Q.I.M.A.S.G.Y.Y.G}$PEPTIDE1,PEPTIDE1,1:R1-8:R3$$$V2.0)	Dropout	Yes	2 to 8 µM	–	–
